Source: PubChem BioAssay (NCI)
Where “and” joins values, the source holds several entries; their conditions need not be identical. Equal entries are not always repeated.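 Assay format: 96-well plates, 48-hour exposure. At the GI50, growth is halved. TGI: concentration producing complete growth inhibition.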

Legend:
Test in all cases: inhibition of tumour cell growth, NCI panel, 48 h
[1] = tested on: NCI-H460 lung
[2] = tested on: KM12 colon
[3] = tested on: EKVX NSCLC
[4] = tested on: MALME-3M melanoma
[5] = tested on: A498 renal
[6] = tested on: UACC-62 melanoma
[7] = tested on: UO-31 renal
[8] = tested on: SK-OV-3 ovarian
[9] = tested on: IGROV1 ovarian
[10] = tested on: SW-620 colon

`O=S(=O)(CCNCc1ccc(-c2ccc3ncnc(Nc4ccc(OCc5cccc(F)c5)c(Cl)c4)c3c2)o1)c1ccccc1` showed a GI50 [1] of over 25 µM, a TGI [1] of over 25 µM and a GI50 [2] of over 25 µM. For the same molecule, the TGI [2] was over 25 µM, the GI50 [3] was 3.44 µM and the TGI [3] was over 25 µM. The GI50 [4] was over 25 µM, the TGI [4] was over 25 µM and the GI50 [5] was over 14.6 µM. The TGI [5] was over 25 µM, the GI50 [6] was over 25 µM and the TGI [6] was over 25 µM. The GI50 [7] was 9.06 µM, the TGI [7] was over 25 µM and the GI50 [8] was 0.349 µM. The TGI [8] was over 25 µM, the GI50 [9] was over 23.6 µM and the TGI [9] was over 25 µM. For the same molecule, the GI50 [10] was over 25 µM and the TGI [10] was over 25 µM.

With `c1ccc(CN2CCCCC(Sc3ccccc3)CC2)cc1` (centres undefined) the TGI [1] was 42.5 µM, the TGI [2] was over 100 µM and the TGI [3] was over 100 µM. For the same molecule, the TGI [4] was 38.2 µM, the TGI [5] was over 100 µM and the TGI [6] was over 100 µM. It also gave a TGI [7] of 28.8 µM, a TGI [8] of over 100 µM and a TGI [9] of over 100 µM. It also gave a TGI [10] of 4.98 µM.

Work on `CCC[CH2][Sn]1([CH2]CCC)[O]CC(CN2CCOCC2)[O]1` (centres undefined) yielded a GI50 [1] of 13.6 µM, a TGI [1] of 26.5 µM and a GI50 [2] of 10.4 µM. For the same molecule, the TGI [2] was 22.5 µM, the GI50 [3] was 2.18 µM and the TGI [3] was 11.9 µM. For the same molecule, the GI50 [4] was 1.62 µM, the TGI [4] was 5.64 µM and the GI50 [5] was 5.5 µM. The TGI [5] was 17.2 µM, the GI50 [6] was 1.79 µM and the TGI [6] was 4.55 µM. It also gave a GI50 [7] of 10.1 µM, a TGI [7] of 21.7 µM and a GI50 [8] of 12.3 µM. For the same molecule, the TGI [8] was 25.8 µM, the GI50 [9] was 12.1 µM and the TGI [9] was 26.1 µM. It also gave a GI50 [10] of 1.99 µM and a TGI [10] of 5.44 µM.

With `COC(=O)C1=C(c2ccc3c(c2)OCO3)OC(c2ccc3c(c2)OCO3)C1` (centres undefined) the TGI [1] was over 100 µM, the TGI [2] was over 100 µM and the TGI [3] was over 100 µM. It also gave a TGI [4] of over 100 µM, a TGI [5] of over 100 µM and a TGI [6] of over 100 µM. It also gave a TGI [7] of over 100 µM, a TGI [8] of over 100 µM and a TGI [9] of over 100 µM. It also gave a TGI [10] of over 100 µM.

`S=C(c1ccc2c(c1)OCO2)N1CCN(c2cccc(Cl)c2)CC1` was tested, and the GI50 [1] was 0.387 µM, the TGI [1] was over 74.7 µM and the GI50 [2] was 0.447 µM. For the same molecule, the TGI [2] was 29.7 µM, the GI50 [3] was 4.52 µM and the TGI [3] was over 100 µM. The GI50 [4] was 0.478 µM, the TGI [4] was over 100 µM and the GI50 [5] was 0.424 µM. The TGI [5] was 12.8 µM, the GI50 [6] was 0.429 µM and the TGI [6] was over 100 µM. It also gave a GI50 [7] of 4.3 µM, a TGI [7] of over 72.5 µM and a GI50 [8] of 2.91 µM. The TGI [8] was over 93.9 µM, the GI50 [9] was 3.88 µM and the TGI [9] was over 100 µM. For the same molecule, the GI50 [10] was 0.404 µM and the TGI [10] was over 100 µM.

`Brc1ccccc1C=NC12CC3CC(CC(C3)C1)C2` gave a TGI [1] of over 100 µM, a TGI [2] of over 100 µM and a TGI [3] of over 100 µM. For the same molecule, the TGI [4] was over 100 µM, the TGI [5] was over 100 µM and the TGI [6] was over 100 µM. For the same molecule, the TGI [7] was over 100 µM, the TGI [8] was over 100 µM and the TGI [9] was over 100 µM. The TGI [10] was over 100 µM.

With `N#Cc1cc(N(CCCl)CCCl)c([N+](=O)[O-])cc1[N+](=O)[O-]` the TGI [1] was over 100 µM, the TGI [2] was over 100 µM and the TGI [3] was over 100 µM. For the same molecule, the TGI [4] was over 100 µM, the TGI [5] was over 100 µM and the TGI [6] was over 100 µM. The TGI [7] was over 100 µM, the TGI [8] was over 100 µM and the TGI [9] was over 100 µM. For the same molecule, the TGI [10] was over 100 µM.

For `COC(=O)C1=C(CS(=O)c2ccc([N+](=O)[O-])cc2[N+](=O)[O-])ON(C)C1c1ccccc1` (centres undefined), the TGI [1] was over 100 µM, the TGI [2] was over 100 µM and the TGI [3] was over 100 µM. For the same molecule, the TGI [4] was over 100 µM, the TGI [5] was over 100 µM and the TGI [6] was over 75.2 µM. The TGI [7] was over 100 µM, the TGI [8] was over 100 µM and the TGI [9] was over 100 µM. The TGI [10] was 48.4 µM.

In the case of `OCC1OC(n2cnc3c2NC=NC[C@H]3O)CC1O` (some centres undefined), the GI50 [1] is reported as over 588 µM, the TGI [1] is reported as 480 µM and > 588 µM and the TGI [2] is reported as 500 µM. For the same molecule, the TGI [3] was 500 µM, the GI50 [4] was over 588 µM and the TGI [4] was 471 µM and > 588 µM. The GI50 [5] was over 588 µM, the TGI [5] was 481 µM and > 588 µM and the GI50 [6] was over 588 µM. The TGI [6] was 461 µM and > 588 µM, the GI50 [7] was over 588 µM and the TGI [7] was 500 µM and > 588 µM. For the same molecule, the GI50 [8] was over 588 µM, the TGI [8] was 474 µM and > 588 µM and the GI50 [9] was over 588 µM. For the same molecule, the TGI [9] was 500 µM and > 588 µM, the GI50 [10] was 478 µM and > 588 µM and the TGI [10] was 500 µM and > 588 µM.

`NC1=CC(=O)c2nc3ccccc3c3ccnc1c23` gave a GI50 [1] of 0.0908 µM, a TGI [1] of 4.6 µM and a GI50 [2] of 3.05 µM. It also gave a TGI [2] of over 65.9 µM, a GI50 [3] of 9.14 µM and a TGI [3] of 29.4 µM. It also gave a GI50 [4] of 0.0856 µM, a TGI [4] of 0.556 µM and a GI50 [5] of 6.19 µM. For the same molecule, the TGI [5] was 40.8 µM, the GI50 [6] was 2.38 µM and the TGI [6] was 17.2 µM. For the same molecule, the GI50 [7] was 3.49 µM, the TGI [7] was over 56.4 µM and the GI50 [8] was 12 µM. It also gave a TGI [8] of over 52.9 µM, a GI50 [9] of 1.57 µM and a TGI [9] of 6.33 µM. It also gave a GI50 [10] of 3.14 µM and a TGI [10] of over 100 µM.

`CCN(CC)CCCC(Cc1ccccc1)Nc1c2ccc(Cl)cc2nc2ccc(OC)cc12` (centres undefined) showed a GI50 [1] of 2.44 µM, a TGI [1] of 5.92 µM and a GI50 [2] of 2.79 µM. It also gave a TGI [2] of 10.3 µM, a GI50 [3] of 2.84 µM and a TGI [3] of 10.5 µM. The GI50 [4] was 2.02 µM, the TGI [4] was 3.6 µM and the GI50 [5] was 1.88 µM. It also gave a TGI [5] of 5.09 µM, a GI50 [6] of 1.95 µM and a TGI [6] of 3.64 µM. It also gave a GI50 [7] of 1.35 µM, a TGI [7] of 2.69 µM and a GI50 [8] of 4.09 µM. The TGI [8] was 13.9 µM, the GI50 [9] was 3.21 µM and the TGI [9] was 13.2 µM. The GI50 [10] was 1.77 µM and the TGI [10] was 3.81 µM.

Molecule `COC(=O)/C(=N\NC(=S)NN)C(C(=O)OC)C(=O)C(=O)Nc1cccc(C(F)(F)F)c1` (centres undefined) has a TGI [1] of over 100 µM, a TGI [2] of over 100 µM and a TGI [3] of over 100 µM. It also gave a TGI [4] of over 100 µM, a TGI [5] of over 100 µM and a TGI [6] of over 100 µM. The TGI [7] was over 100 µM, the TGI [8] was over 100 µM and the TGI [9] was over 100 µM. The TGI [10] was over 100 µM.

For `COc1ccc2c(c1)/C(=C\c1c(Cl)n(C)c3ccccc13)C(=O)N2`, the GI50 [1] was 0.459 µM, the TGI [1] was 15.9 µM and the GI50 [2] was 9.06 µM. For the same molecule, the TGI [2] was 26.4 µM, the GI50 [3] was 3.95 µM and the TGI [3] was 24.4 µM. For the same molecule, the GI50 [4] was 4.59 µM, the TGI [4] was 16.7 µM and the GI50 [5] was 0.611 µM. The TGI [5] was 4.31 µM, the GI50 [6] was 0.255 µM and the TGI [6] was 5.34 µM. The GI50 [7] was 3.71 µM, the TGI [7] was 20.6 µM and the GI50 [8] was 0.86 µM. For the same molecule, the TGI [8] was 14.5 µM, the GI50 [9] was 0.561 µM and the GI50 [10] was 1.13 µM. For the same molecule, the TGI [10] was 17.1 µM.

In the case of `CSc1nc(C)c(Br)c(=O)n1C1OC(COC(C)=O)C(OC(C)=O)C(OC(C)=O)C1OC(C)=O` (centres undefined), the TGI [1] is reported as over 100 µM, the TGI [2] is reported as over 100 µM and the GI50 [3] is reported as > 100 µM and 42.9 µM. The TGI [3] was over 100 µM, the GI50 [4] was > 100 µM and 33.4 µM and the TGI [4] was > 100 µM and 70.4 µM. For the same molecule, the GI50 [5] was 29.4 µM and 75.4 µM, the TGI [5] was over 100 µM and the GI50 [6] was 97 µM and 23.3 µM. For the same molecule, the TGI [6] was > 100 µM and 44.1 µM, the GI50 [7] was > 100 µM and 44.9 µM and the TGI [7] was over 100 µM. For the same molecule, the GI50 [8] was > 91.7 µM and 42.3 µM, the TGI [8] was over 100 µM and the GI50 [9] was > 100 µM and 27.4 µM. The TGI [9] was > 100 µM and 71.5 µM and the TGI [10] was over 100 µM.

Work on `CCC(c1ccc2cc(O)ccc2c1)C(C)(C)C(=O)O` (centres undefined) yielded a TGI [1] of over 100 µM, a TGI [2] of over 100 µM and a TGI [3] of over 100 µM. The TGI [4] was over 100 µM, the TGI [5] was over 100 µM and the TGI [6] was over 100 µM. For the same molecule, the TGI [7] was over 100 µM, the TGI [8] was over 100 µM and the TGI [9] was over 100 µM. For the same molecule, the TGI [10] was over 100 µM.
